Where two headings read alike, the source gives them in different places.
Tests used:
[1] = test system: HCT-116 colon cancer cell line; experiment: MTT assay, in vitro cytotoxicity against HCT-116; type: cell-based; details: read-out: IC50, in vitro cytotoxicity against HCT116 cell line
Method: The target compounds were evaluated for their anticancer activity against HCT-116 colon cancer cell line in which both c-Met and VEGFR-2 are overexpressed.[54]^,[55] […] The half maximal inhibitory concentration (IC50) was calculated for each compound (Table 1).
(§1) To scrutinise the cytotoxicity of the target compounds on colorectal cancer and normal cells, MTT assay was carried out against HCT-116 and WI38 cell lines, respectively.

[2] = MTT assay, in vitro toxicity against normal cells; type: cell-based; details: human, WI38 normal cells; MTT assay, WI38; read-out: IC50, in vitro cytotoxicity against WI38 normal cell line
Method: (§2) To scrutinise the safety of target compounds on normal cells, compounds 4b and 4e were selected to evaluate their cytotoxic activity against WI38 normal cell line (Table 2).
as §1

WI38 normal cell line = experiment: MTT assay, in vitro toxicity against normal cells; type: cell-based; details: HCT-116 versus WI38
Method: as §2, §1

[3] = test system: HCT-116 colon cancer cell line; experiment: Cell cycle analysis; type: cell-based; details: HCT-116, treated at IC50 concentration, 24 h
Method: Aiming to further study the mechanism of the target compounds, the cell cycle arrest experiment of 4b and 4e blocking the cell cycle of HCT-116 was carried out using Annexin V-FITC/PI staining (Table 4 and Figure 8).[56]
(§3) The effects of both 4b and 4e on progress of cell cycle and induction of apoptosis in […] cells were carried out using Annexin V-FITC Apoptosis Detection Kit (BioVision Research Products, Mountain View, CA) (see Supplementary Data)[8].

HCT-116 cells = experiment: Apoptosis assay, Annexin V-FITC/PI staining; type: cell-based; details: HCT-116, treated at IC50 concentration, 24 h
Method: Compared to the control group, the number of both early and late apoptotic cells of target compounds 4b and 4e was increased.
as §3

c-Met = c-Met (Homo sapiens, UniProt P08581); experiment: In vitro c-Met tyrosine kinase inhibition assay
Chain of c-Met (P08581 25-1390): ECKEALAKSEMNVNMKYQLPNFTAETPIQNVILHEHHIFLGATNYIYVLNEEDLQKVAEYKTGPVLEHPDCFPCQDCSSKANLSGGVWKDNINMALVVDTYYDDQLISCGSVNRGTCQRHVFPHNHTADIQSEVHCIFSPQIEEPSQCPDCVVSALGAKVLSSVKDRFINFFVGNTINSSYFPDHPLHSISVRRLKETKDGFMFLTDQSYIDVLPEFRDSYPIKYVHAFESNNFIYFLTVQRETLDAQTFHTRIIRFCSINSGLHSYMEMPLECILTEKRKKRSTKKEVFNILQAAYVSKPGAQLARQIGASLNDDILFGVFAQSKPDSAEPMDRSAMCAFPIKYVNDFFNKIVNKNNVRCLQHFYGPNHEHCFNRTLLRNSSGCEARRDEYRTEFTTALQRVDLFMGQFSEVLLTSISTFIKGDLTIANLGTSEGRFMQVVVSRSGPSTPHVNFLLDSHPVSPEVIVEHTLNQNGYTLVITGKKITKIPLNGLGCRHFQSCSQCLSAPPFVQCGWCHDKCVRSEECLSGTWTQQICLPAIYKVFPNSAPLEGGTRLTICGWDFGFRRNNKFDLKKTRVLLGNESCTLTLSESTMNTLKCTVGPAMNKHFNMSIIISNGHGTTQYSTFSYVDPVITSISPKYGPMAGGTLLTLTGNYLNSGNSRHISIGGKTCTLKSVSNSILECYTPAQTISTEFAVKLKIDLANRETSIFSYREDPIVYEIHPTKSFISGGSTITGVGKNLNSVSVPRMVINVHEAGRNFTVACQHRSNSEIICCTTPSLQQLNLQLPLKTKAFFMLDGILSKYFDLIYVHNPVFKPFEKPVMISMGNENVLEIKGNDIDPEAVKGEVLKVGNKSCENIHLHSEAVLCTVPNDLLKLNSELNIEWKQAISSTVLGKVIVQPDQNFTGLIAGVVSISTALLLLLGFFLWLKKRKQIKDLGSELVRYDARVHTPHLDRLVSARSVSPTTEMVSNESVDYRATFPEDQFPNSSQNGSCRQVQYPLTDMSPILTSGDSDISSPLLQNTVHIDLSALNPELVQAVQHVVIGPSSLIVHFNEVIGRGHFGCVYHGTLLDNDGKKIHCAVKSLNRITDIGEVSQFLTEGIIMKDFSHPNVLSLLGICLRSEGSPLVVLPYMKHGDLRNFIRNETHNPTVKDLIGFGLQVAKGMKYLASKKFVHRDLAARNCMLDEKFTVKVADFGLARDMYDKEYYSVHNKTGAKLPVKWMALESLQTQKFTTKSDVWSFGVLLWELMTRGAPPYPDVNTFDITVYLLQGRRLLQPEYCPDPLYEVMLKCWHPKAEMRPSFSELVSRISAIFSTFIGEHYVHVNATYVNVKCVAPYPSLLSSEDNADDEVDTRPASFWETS

VEGFR-2 = VEGFR-2 (Homo sapiens, UniProt P35968); experiment: In vitro VEGFR-2 tyrosine kinase inhibition assay (BPS KDR Assay Kit)
Chain of VEGFR-2 (P35968 20-1356): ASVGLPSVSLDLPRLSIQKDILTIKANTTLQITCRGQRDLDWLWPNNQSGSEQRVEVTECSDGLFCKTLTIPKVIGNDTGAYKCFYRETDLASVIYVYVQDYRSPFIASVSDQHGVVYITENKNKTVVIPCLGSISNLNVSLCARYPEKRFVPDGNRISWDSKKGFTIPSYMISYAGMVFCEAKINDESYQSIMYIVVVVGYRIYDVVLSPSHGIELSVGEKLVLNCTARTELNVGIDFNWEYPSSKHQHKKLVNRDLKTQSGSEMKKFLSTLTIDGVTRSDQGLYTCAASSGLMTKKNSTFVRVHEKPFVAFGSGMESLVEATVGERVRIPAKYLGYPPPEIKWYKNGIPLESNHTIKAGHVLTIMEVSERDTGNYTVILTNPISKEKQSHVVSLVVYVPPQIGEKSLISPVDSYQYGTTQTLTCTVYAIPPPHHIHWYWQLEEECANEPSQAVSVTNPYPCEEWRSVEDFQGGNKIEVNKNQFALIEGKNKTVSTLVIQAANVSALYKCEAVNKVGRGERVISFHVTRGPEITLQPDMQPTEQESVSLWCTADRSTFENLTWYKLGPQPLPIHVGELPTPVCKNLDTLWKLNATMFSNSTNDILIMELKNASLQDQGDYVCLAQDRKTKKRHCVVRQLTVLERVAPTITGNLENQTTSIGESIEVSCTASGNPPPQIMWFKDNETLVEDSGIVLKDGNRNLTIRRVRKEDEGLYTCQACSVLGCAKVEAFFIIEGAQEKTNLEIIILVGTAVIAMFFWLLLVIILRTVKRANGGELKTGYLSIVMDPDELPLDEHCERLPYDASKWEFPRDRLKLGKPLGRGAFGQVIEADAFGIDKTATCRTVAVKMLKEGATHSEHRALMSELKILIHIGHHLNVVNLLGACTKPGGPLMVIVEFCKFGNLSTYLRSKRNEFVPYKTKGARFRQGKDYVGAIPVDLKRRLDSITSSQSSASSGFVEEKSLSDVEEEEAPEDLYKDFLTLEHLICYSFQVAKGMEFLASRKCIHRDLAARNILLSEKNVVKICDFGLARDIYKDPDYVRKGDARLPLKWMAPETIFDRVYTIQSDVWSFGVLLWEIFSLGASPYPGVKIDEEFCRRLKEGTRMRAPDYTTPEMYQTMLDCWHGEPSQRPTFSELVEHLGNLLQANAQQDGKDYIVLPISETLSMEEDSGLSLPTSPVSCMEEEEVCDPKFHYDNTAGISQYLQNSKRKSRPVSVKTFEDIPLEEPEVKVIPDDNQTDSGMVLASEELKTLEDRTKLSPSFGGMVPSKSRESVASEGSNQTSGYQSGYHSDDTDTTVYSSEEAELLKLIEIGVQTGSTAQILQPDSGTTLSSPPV

[4] = Homo sapiens, HCT-116, MTT assay

SMILES | melting point | IC50 (c-Met) | c-Met %inh (c-Met; conc 0.01 (unit not given)) | c-Met %inh (c-Met; conc 0.1 (unit not given)) | c-Met %inh (c-Met; conc 1 (unit not given)) | c-Met %inh (c-Met; conc 10 (unit not given)) | IC50 (VEGFR-2) | VEGFR-2 %inh (VEGFR-2; conc 0.01 (unit not given)) | VEGFR-2 %inh (VEGFR-2; conc 0.1 (unit not given)) | VEGFR-2 %inh (VEGFR-2; conc 1 (unit not given)) | VEGFR-2 %inh (VEGFR-2; conc 10 (unit not given)) | IC50 [1, 4] | further results
O=C(Cn1c(=O)[nH]c2ccccc2c1=O)N1CCCCC1 [Compound 2e, 3-(2-Oxo-2-(piperidin-1-yl)ethyl)quinazoline-2,4(1H,3H)-dione] | 204 °C |  |  |  |  |  |  |  |  |  |  | 38 ± 2.01 µM | 
O=C(Cn1c(=O)[nH]c2ccccc2c1=O)NCC(=O)N/N=C1\C(=O)Nc2ccccc21 [Compound 4f, (Z)-2-[2,4-Dioxo-1,4-dihydroquinazolin-3(2H)-yl]-N-[2-oxo-2-(2-(2-oxoindolin-3-ylidene)hydrazineyl)ethyl]acetamide] |  |  |  |  |  |  |  |  |  |  |  | 44.1 ± 2.33 µM | 
O=C(Cn1c(=O)[nH]c2ccccc2c1=O)N1CCOCC1 [Compound 2f, 3-(2-Morpholino-2-oxoethyl)quinazoline-2,4(1H,3H)-dione] | 254 to 255 °C | 0.161 ± 0.007 µM | 22.84% | 44.08% | 70.59% | 88.98% | 0.21 ± 0.009 µM | 18.54% | 43.39% | 68.26% | 85.96% | 5.4 ± 0.29 µM | 
O=C(Cn1c(=O)[nH]c2ccccc2c1=O)NCC(=O)N/N=C/c1ccco1 [Compound 4d, (E)-2-(2,4-Dioxo-1,4-dihydroquinazolin-3(2H)-yl)-N-[2-(2-[furan-2-ylmethylene]hydrazineyl)-2-oxoethyl]acetamide] |  |  |  |  |  |  |  |  |  |  |  | 10.8 ± 0.57 µM | 
O=C(Cn1c(=O)[nH]c2ccccc2c1=O)NCc1ccccc1 [Compound 2b, N-Benzyl-2-(2,4-dioxo-1,4-dihydroquinazolin-3(2H)-yl)acetamide] | 298 to 299 °C |  |  |  |  |  |  |  |  |  |  | 16 ± 0.85 µM | 
COc1cc2nccc(Oc3ccc(NC(=O)C4(C(=O)Nc5ccc(F)cc5)CC4)cc3)c2cc1OC [Cabozantinib, reference compound] |  |  |  |  |  |  |  |  |  |  |  | 16.4 ± 0.86 µM | IC50 [2]: 44.7 ± 2.65 µM; %G0–G1 [3]: 43.12%; %G2/M [3]: 24.72%; %S [3]: 32.16%; %Necrosis (HCT-116 cells): 3.63%; Apoptosis %Early (HCT-116 cells): 12.52%; Apoptosis %Late (HCT-116 cells): 19.61%; Apoptosis %Total (HCT-116 cells): 32.13%
NNC(=O)CNC(=O)Cn1c(=O)[nH]c2ccccc2c1=O [Compound 3, 2-(2,4-Dioxo-1,4-dihydroquinazolin-3(2H)-yl)-N-(2-hydrazineyl-2-oxo-ethyl)acetamide] | 296 to 298 °C |  |  |  |  |  |  |  |  |  |  | 24.3 ± 1.28 µM | 
O=C(Cn1c(=O)[nH]c2ccccc2c1=O)Nc1ccccc1 [Compound 2a, 2-(2,4-Dioxo-1,4-dihydroquinazolin-3(2H)-yl)-N-phenylacetamide] |  |  |  |  |  |  |  |  |  |  |  | 15.1 ± 0.8 µM | 
CN(C)C(=O)Cn1c(=O)[nH]c2ccccc2c1=O [Compound 2d, 2-(2,4-Dioxo-1,4-dihydroquinazolin-3(2H)-yl)-N,N-dimethylacetamide] | 218 to 220 °C |  |  |  |  |  |  |  |  |  |  | 47.5 ± 2.51 µM | 
O=C(Cn1c(=O)[nH]c2ccccc2c1=O)NCc1n[nH]c(=S)n1-c1ccccc1 [Compound 4j, 2-(2,4-Dioxo-1,4-dihydroquinazolin-3(2H)-yl)-N-[(4-phenyl-5-thioxo-4,5-dihydro-1H-1,2,4-triazol-3-yl)methyl]acetamide] |  |  |  |  |  |  |  |  |  |  |  | 18.9 ± 1 µM | 
O=C(Cn1c(=O)[nH]c2ccccc2c1=O)NC1CCCCC1 [Compound 2c, N-Cyclohexyl-2-(2,4-dioxo-1,4-dihydroquinazolin-3(2H)-yl)acetamide] |  | 0.084 ± 0.004 µM | 27.36% | 55.94% | 73.28% | 92.28% | 0.052 ± 0.002 µM | 35.32% | 56.18% | 76.46% | 88.96% | 4.69 ± 0.25 µM | 
CCOC(=O)CNC(=O)Cn1c(=O)[nH]c2ccccc2c1=O [Compound 2g, Ethyl [2-(2,4-dioxo-1,4-dihydroquinazolin-3(2H)-yl)acetyl]glycinate] |  |  |  |  |  |  |  |  |  |  |  | 12.5 ± 0.66 µM | 

Now from value to compound, other results behind:

melting point | IC50 (c-Met) | c-Met %inh (c-Met; conc 0.01 (unit not given)) | c-Met %inh (c-Met; conc 0.1 (unit not given)) | c-Met %inh (c-Met; conc 1 (unit not given)) | c-Met %inh (c-Met; conc 10 (unit not given)) | IC50 (VEGFR-2) | VEGFR-2 %inh (VEGFR-2; conc 0.01 (unit not given)) | VEGFR-2 %inh (VEGFR-2; conc 0.1 (unit not given)) | VEGFR-2 %inh (VEGFR-2; conc 1 (unit not given)) | VEGFR-2 %inh (VEGFR-2; conc 10 (unit not given)) | SMILES | IC50 [1, 4] | further results
290 to 292 °C |  |  |  |  |  |  |  |  |  |  | COc1ccc(/C=N/NC(=O)CNC(=O)Cn2c(=O)[nH]c3ccccc3c2=O)cc1 [Compound 4c, (E)-2-(2,4-Dioxo-1,4-dihydroquinazolin-3(2H)-yl)-N-[2-(2-[4-methoxy-benzylidene]hydrazineyl)-2-oxoethyl]acetamide] | 31.8 ± 1.68 µM | 
 | 0.069 ± 0.003 µM | 28.94% | 55.05% | 80.41% | 92.94% | 0.082 ± 0.004 µM | 33.05% | 50.29% | 73.09% | 86.83% | O=C(Cn1c(=O)[nH]c2ccccc2c1=O)NCC(=O)NN=C1CCCCC1 [Compound 4e, N-[2-(2-Cyclohexylidenehydrazineyl)-2-oxoethyl]-2-(2,4-dioxo-1,4-dihydroquinazolin-3(2H)-yl)acetamide] | 1.41 ± 0.07 µM | IC50 [2]: 10.6 ± 0.62 µM; cytotoxic activity against HCT-116 colon cancer cells, times more than WI38 normal cells (WI38 normal cell line): 7.5 times; %G0–G1 [3]: 44.60%; %G2/M [3]: 8.51%; %S [3]: 46.89%; %Necrosis (HCT-116 cells): 2.28%; Apoptosis %Early (HCT-116 cells): 26.76%; Apoptosis %Late (HCT-116 cells): 12.02%; Apoptosis %Total (HCT-116 cells): 38.78%
284 to 286 °C | 0.271 ± 0.012 µM | 20.56% | 34.11% | 65.69% | 85.71% | 0.103 ± 0.005 µM | 27.96% | 52.07% | 70.58% | 88.15% | Cc1cc(C)n(C(=O)CNC(=O)Cn2c(=O)[nH]c3ccccc3c2=O)n1 [Compound 4g, N-[2-(3,5-Dimethyl-1H-pyrazol-1-yl)-2-oxoethyl]-2-(2,4-dioxo-1,4-dihyd-roquinazolin-3(2H)-yl)acetamide] | 3.7 ± 0.2 µM | 
325 °C |  |  |  |  |  |  |  |  |  |  | O=C(Cn1c(=O)[nH]c2ccccc2c1=O)NCC(=O)N/N=C/c1ccccc1 [Compound 4a, (E)-N-[2-(2-Benzylidenehydrazineyl)-2-oxoethyl]-2-(2,4-dioxo-1,4-dihy-droquinazolin-3(2H)-yl)acetamide] | 36.9 ± 1.95 µM | 
 | 0.063 ± 0.003 µM | 27.49% | 58.65% | 82.51% | 93.15% | 0.035 ± 0.002 µM | 38.24% | 60.12% | 78.48% | 90.09% | O=C(Cn1c(=O)[nH]c2ccccc2c1=O)NCC(=O)N/N=C/c1ccc([N+](=O)[O-])cc1 [Compound 4b, (E)-2-(2,4-Dioxo-1,4-dihydroquinazolin-3(2H)-yl)-N-[2-(2-[4-nitrobenz-ylidene]hydrazineyl)-2-oxoethyl]acetamide] | < 1 µM | IC50 ([1]; MTT assay): 0.734 ± 0.04 µM; IC50 [2]: 18.4 ± 1.09 µM; cytotoxic activity against HCT-116 colon cancer cells, times more than WI38 normal cells (WI38 normal cell line): 25 times; %G0–G1 [3]: 39.59%; %G2/M [3]: 9.34%; %S [3]: 51.07%; %Necrosis (HCT-116 cells): 4.53%; Apoptosis %Early (HCT-116 cells): 15.28%; Apoptosis %Late (HCT-116 cells): 26.41%; Apoptosis %Total (HCT-116 cells): 41.69%
 | 0.245 ± 0.011 µM | 17.87% | 35.84% | 70.09% | 86.83% | 0.297 ± 0.013 µM | 18.58% | 40.45% | 60.74% | 82.49% | O=C(Cn1c(=O)[nH]c2ccccc2c1=O)NCc1n[nH]c(=S)o1 [Compound 4h, 2-(2,4-Dioxo-1,4-dihydroquinazolin-3(2H)-yl)-N-[(5-thioxo-4,5-dihydro-1,3,4-oxadiazol-2-yl)methyl]acetamide] | 6.99 ± 0.37 µM | 
287 to 290 °C |  |  |  |  |  |  |  |  |  |  | O=C(Cn1c(=O)[nH]c2ccccc2c1=O)NCC(=O)NNC(=S)Nc1ccccc1 [Compound 4i, 2-(2,4-Dioxo-1,4-dihydroquinazolin-3(2H)-yl)-N-[2-oxo-2-(2-[phenylcar-bamothioyl]hydrazineyl)ethyl]acetamide] | 9.2 ± 0.49 µM | 

From publication PMC10026756
